We go through one molecule from US9180111B2, “Reduction in complement activation and inflammation during tissue injury by carotenoids, carotenoid analogs, or derivatives thereof” (Cardax Pharma, Inc., priority 2005, dated 2015).

SMILES strings stand for the structures.

In one data set the test system is MAC (C5b-9). Briefly: MAC deposition in heart tissue by indirect immunofluorescence. Conditions: rabbits, 50 mg/kg i.v. 4 days, 30 min ischemia, 3 h reperfusion; p<0.05. It counts as in vivo, rabbit. The method, then:
The immunofluorescent method for detection of CRP was performed essentially as described previously (Lauver et al., 2005). Briefly, tissue samples used for infarct size determination were fixed in 10% buffered formalin immediately after the completion of the experimental protocol. The tissue samples were embedded in paraffin blocks and cut into sections of 2 μm in thickness, which were then mounted on glass slides. Two consecutive sections (mirror images) from a single heart slice were mounted on each slide. The slides were deparaffinized and subjected to antigen unmasking using a commercially available kit for this purpose (Vector Laboratories, Burlingame, Calif.). After blocking for 30 minutes, primary antibodies were incubated at room temperature in a humidity chamber for 45 minutes. One section per slide was incubated with a chicken anti-rabbit CRP antibody (5 μg/ml final concentration, Strategic BioSolutions, Newark, Del.) and the other section was incubated with a chicken anti-rabbit MAC antibody (1:2500 final dilution, developed in conjunction with Lampire Biological Laboratories, Pipersville, Pa.). […] Images were analyzed using IP Lab (Scanalytics, Inc., Fairfax, Va.) software to determine mean fluorescence intensity per heart section. […]

The conditions of data set [1]: oral administration to black mice (Showalter et al. 2004); cited from earlier work.
A short description of data set [2]: Determination of aqueous solubility/dispersibility. In kind it is physicochemical. Conditions: deionized water. How it is done: (§1) 30.13 mg of 3 was added to 1 mL of USP-purified water. The sample was rotated for 2 hours, then centrifuged for 5 minutes. After centrifuging, solid was visible in the bottom of the tube. A 125-μL aliquot of the solution was then diluted to 25 mL. The sample was analyzed by UV/Vis spectroscopy at 436 nm, and the absorbance was compared to a standard curve compiled from 4 standards of known concentration. The concentration of the original supernatant was calculated to be 2.85 mg/mL and the absorptivity was 36.94 AU*mL/cm*mg. Slight error may have been introduced by the small size of the original aliquot.
as §1, with “Next, 30.80” for “30.13”, “9” for “3”, “411” for “436”, “29.27” for “2.85”, “2.90” for “36.94”

Data set [3] can be described thus: Plasma and tissue concentrations of non-esterified, free astaxanthin at the end of reperfusion. Particulars: rabbits, DDA 50 mg/kg i.v. for 4 days, end of 3 h reperfusion. In kind it is in vivo, rabbit. The text has this: To determine the plasma and tissue concentrations of non-esterified, free astaxanthin in blood and organs, samples were taken at the end of reperfusion in selected rabbits (n=5) treated with DDA, and determined by methods previously described (Osterlie et al., 2000). Non-esterified, free astaxanthin, in vivo, is generated after cleavage of the water-dispersible disuccinate diester to monosuccinate, and subsequently to non-esterified, free astaxanthin by the intrinsic esterase activity of serum albumin (Curry et al., 1999), or by non-specific esterase activity in plasma and solid organs (Jensen et al., 1999). Non-esterified, free astaxanthin then accumulates in myocardium and other tissues after plasma clearance in a dose-dependent manner after both oral (Showalter et al., 2004) and intravenous administration (Gross and Lockwood 2004a,b).

For a further data set, the system named is Sprague-Dawley rats. Conditions: 50 mg/kg i.v., four days; cited from earlier work.

With `CC1=C(/C=C/C(C)=C/C=C/C(C)=C/C=C/C=C(C)/C=C/C=C(C)/C=C/C2=C(C)C(=O)C(OC(=O)CCC(=O)O)CC2(C)C)C(C)(C)CC(OC(=O)CCC(=O)O)C1=O` (stereo not drawn) [DDA, disodium disuccinate astaxanthin], the “MAC deposition in infarct region (fluorescence intensity) versus saline” value with MAC (C5b-9) was “significantly reduced fluorescence”. Also, in data set [1], the “plasma clearance of free astaxanthin and tissue/serum ratios” value is “Rapid plasma clearance of free astaxanthin, and excellent myocardium- and hepatic/serum ratios”. The maximum aqueous dispersibility entry in data set [2] is listed as “greater than 10 mM”. In data set [3], the “mean myocardial tissue concentration of non-esterified astaxanthin” value was over 10 µM and the “mean plasma concentration of non-esterified, free astaxanthin” value came out at 222 ± 51 nM. Further, in the data set with Sprague-Dawley rats, the mean myocardial salvage was 41%.
